Results published in patent publication US20220089616A1, “CARBORANE-BASED HISTONE DEACETYLASE (HDAC) INHIBITORS” (The Regents of the University of California, priority 2018, published 2022).

System: primary mouse NPCs
Assay: TUNEL assay, mouse NPCs
Format: cell-based
Conditions: 40 μM
Procedure: Primary neural progenitor cells (NPCs) were a gift from Dr. Harley Kornblum (University of California Los Angeles). The cells were collected from embryonic day 14 (E14) mouse brain according to procedures approved by the UCLA Chancellor's Committee for Animal Research. The following supplements were added to the Neurobasal media: 1:50 B27, 1:100 Pen-Strep, 2 mM 1-glutamine (all from GIBCO/BRL), 2 μg/ml heparin (Sigma), and 20 ng/ml FGF2 (PeproTech). Cells were incubated at 37° C. in the presence of 5% CO2. Additional FGF2 was added every third day, and cultures were passaged every 7 days. During each passage, spheres were enzymatically and mechanically dissociated with Accumax (Sigma).
Click-iT® Plus TUNEL Assay (Molecular Probes Life Technologies, Catalog #: C10617)
Primary mouse NPCs were passaged and counted as previously described. Cells without treatment were used as a negative control, DNaseI (Cat. no. 18068-015) was used to generate a positive control, and 10 μL of inhibitor solutions were used at varying concentrations. A 24-well plate was prepped with 12 mm circle glass coverslips in the wells. Coverslips were coated with poly-L-lysine followed by laminin prior to plating the cells. […]

TUNEL positive cells (FIG. 11A): perceived elevation
Structure (SMILES): CN(Cc1ccc(/C=C/C(=O)NO)cc1)CC12CC3CC(CC(C3)C1)C2 [Martinostat]
toxicity by average cell population count of confocal images (5 positions): higher toxicity
